Changes are numbered by the printed parent chain. Where “and” joins values, the source holds several entries; their conditions need not be identical. Equal entries are not always repeated.
How the values were obtained:
[1] = target: T1, WT ForT (Streptomyces kaniharaensis, UniProt A0A5S9CYM0); parameters: method as in PMID 31518483; conditions: ForT-catalysed coupling to PRPP, two products with a new C-C bond; cited from earlier work
[2] = target: T1, WT ForT; experiment: Substrate scope of WT ForT, LC-MS assay; type: biochemical; conditions: MgPRPP
Procedure: We assayed a series of pyrazoles as ForT substrates in which the extracyclic amine was replaced by hydrogen (PDA), nitro- (NPDA), methyl- (MPDA) and iodo- (IPDA) groups (figure 5a; electronic supplementary material, table S1). […] On the other hand, 4-amino-1H-pyrazole-3-carboxylate (APCA) can be coupled to PRPP by ForT to give two products containing a new C-C bond, albeit in less than 5% overall yield (figure 5b). In order to assess the importance of pyrazole substitution, we incubated 3-amino-1H-pyrazole-4-carboxylate (iso-APCA) (electronic supplementary material, table S2) and MgPRPP in the presence of ForT. […] Thus, the product was one of two possible C-N nucleotides.

[3] = target: T2, ForT/PRPP complex (Streptomyces kaniharaensis, UniProt A0A5S9CYM0); experiment: Binding of HPDA to the ForT/PRPP complex; conditions: Li, unpublished
T2 sequence (A0A5S9CYM0 1-341): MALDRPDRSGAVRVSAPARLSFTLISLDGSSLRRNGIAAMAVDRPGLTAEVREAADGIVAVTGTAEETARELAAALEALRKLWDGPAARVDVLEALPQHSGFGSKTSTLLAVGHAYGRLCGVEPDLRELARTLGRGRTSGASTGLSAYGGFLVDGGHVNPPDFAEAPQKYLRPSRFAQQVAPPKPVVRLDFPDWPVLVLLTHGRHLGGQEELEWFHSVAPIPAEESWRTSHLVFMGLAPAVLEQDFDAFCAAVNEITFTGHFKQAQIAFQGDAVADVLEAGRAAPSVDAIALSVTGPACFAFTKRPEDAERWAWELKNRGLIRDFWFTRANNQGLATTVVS

[4] = target: T1, WT ForT; experiment: ITC binding of PRPP to free enzyme, absence of Mg2+; conditions: no Mg2+, room temperature
From the text: We therefore extended these studies to obtain the binding affinity of APDA to the ForT/PRPP binary complex at room temperature using isothermal calorimetry (ITC) measurements. […] The omission of the catalytically important metal ion thereby avoids any heat generated by catalytic turnover ‘contaminating’ heat released by ligand binding. As a result, these ITC studies report only on the affinity of PRPP and APDA for the free WT enzyme and its PRPP binary complex, respectively.

[5] = target: T3, S21A ForT variant (Streptomyces kaniharaensis, UniProt A0A5S9CYM0, S21A); experiment: biochemical
T3 sequence (A0A5S9CYM0 1-341 S21A): T2 sequence (A0A5S9CYM0 1-341) with S21A

[6] = target: T4, L24A ForT variant (Streptomyces kaniharaensis, UniProt A0A5S9CYM0, L24A); experiment: biochemical
T4 sequence (A0A5S9CYM0 1-341 L24A): T2 sequence (A0A5S9CYM0 1-341) with L24A

[7] = target: T5, T138A ForT variant (Streptomyces kaniharaensis, UniProt A0A5S9CYM0, T138A); experiment: biochemical
T5 sequence (A0A5S9CYM0 1-341 T138A): T2 sequence (A0A5S9CYM0 1-341) with T138A

[8] = target: T6, T138V ForT variant (Streptomyces kaniharaensis, UniProt A0A5S9CYM0, T138V); experiment: biochemical
T6 sequence (A0A5S9CYM0 1-341 T138V): T2 sequence (A0A5S9CYM0 1-341) with T138V

[9] = target: T7, S174A ForT variant (Streptomyces kaniharaensis, UniProt A0A5S9CYM0, S174A); experiment: biochemical
T7 sequence (A0A5S9CYM0 1-341 S174A): T2 sequence (A0A5S9CYM0 1-341) with S174A

[10] = target: T8, E211A ForT variant (Streptomyces kaniharaensis, UniProt A0A5S9CYM0, E211A); experiment: biochemical
T8 sequence (A0A5S9CYM0 1-341 E211A): T2 sequence (A0A5S9CYM0 1-341) with E211A

[11] = target: T9, K263A ForT variant (Streptomyces kaniharaensis, UniProt A0A5S9CYM0, K263A); experiment: biochemical
T9 sequence (A0A5S9CYM0 1-341 K263A): T2 sequence (A0A5S9CYM0 1-341) with K263A

## Nc1cn[nH]c1C(=O)O [APCA, 4-amino-1H-pyrazole-3-carboxylate]
[1]
  overall yield of coupled products: less than 5%

## O=C(O)c1n[nH]c(C(=O)O)c1O [HPDA, 4-hydroxy-1H-pyrazole-3,5-dicarboxylic acid]
[2]
  substrate for the ForT-catalysed coupling with PRPP: is not a substrate
[3]
  Kd: 37 µM

## O=C(O)c1n[nH]c(C(=O)O)c1I [IPDA]
[2]
  substrate for the ForT-catalysed coupling with PRPP: None of these pyrazole-dicarboxylates proved to be substrates

## Cc1c(C(=O)O)n[nH]c1C(=O)O [MPDA]
[2]
  substrate for the ForT-catalysed coupling with PRPP: None of these pyrazole-dicarboxylates proved to be substrates

## O=C(O)c1n[nH]c(C(=O)O)c1[N+](=O)[O-] [NPDA]
[2]
  substrate for the ForT-catalysed coupling with PRPP: None of these pyrazole-dicarboxylates proved to be substrates

## O=C(O)c1cc(C(=O)O)[nH]n1 [PDA]
[2]
  substrate for the ForT-catalysed coupling with PRPP: None of these pyrazole-dicarboxylates proved to be substrates

## O=P(O)(O)OC[C@H]1O[C@H](OP(=O)(O)OP(=O)(O)O)[C@H](O)[C@@H]1O [PRPP, 5′-phosphoribose-1′-pyrophosphate]
[4]
  Kd: 0.9 µM and 0.93 µM
[5]
  Kd: 0.35 ± 0.02 µM
[6]
  Kd: 1.5 ± 0.1 µM
[7]
  Kd: 6.7 ± 0.5 µM
[8]
  Kd: 0.7 ± 0.4 µM
[9]
  Kd: 6 ± 0.3 µM
[10]
  Kd: 0.95 ± 0.02 µM
[11]
  Kd: 20 ± 8 µM

## Nc1[nH]ncc1C(=O)O [iso-APCA, 3-amino-1H-pyrazole-4-carboxylate]
[2]
  substrate for the ForT-catalysed coupling with PRPP: a new product had been formed

— PMC9832568, “Experimental and computational snapshots of C-C bond formation in a C-nucleoside synthase” (Open Biology, 2023)
